We go through 2 compounds from patent US20160106689A1, “USE” (Novabiotics Limited, priority 2014, published 2016).

This experiment relates to Pseudomonas aeruginosa (PAO1). The experiment in a line: MIC100 determination against the type strain of Pseudomonas aeruginosa (PAO1). The following applies: for MIC: Pseudomonas aeruginosa. Type of experiment: cell-based. The method, then:
The MIC100 using cysteamine, oxidised cysteamine and cystamine against the type strain of Pseudomonas aeruginosa (PAO1) was determined. Cysteamine and ‘oxidised’ cysteamine (containing some cystamine) were consistently equivalent at either 250 μg/ml or (as shown in the summary table below) 500 μg/ml. We oxidised the cysteamine by leaving the powder exposed to the air (in a sterile environment) for 5 days—during which time it changes in appearance (turning from an off white crystalline morphology to more of a white powder). It often also accrues water as it is hygroscopic and can also react with air to produce water.

Setting [1] is: PAO1, in CA-MHB, three replicates, repeated three times, read-out: MIC100 against PAO1 in CA-MHB.
Where [2] appears, read: PAO1, in MHB, three replicates, repeated three times, read-out: MIC100 against PAO1 in MHB.

≈ marks a conversion by molar mass, not a printed value. Where a name gives a salt, the structure may show the parent alone. Read-outs that look alike come from different tables or passages of the source.

On to `NCCSSCCN` [Cystamine HCl, cystamine], for which the “antibacterial activity (in words)” value (PAO1, oxidised cysteamine compared with fresh cysteamine) is given as “shown to be antibacterial”. Moreover, the MIC was 1000 µg/mL under setting [1] and 1000 µg/mL under setting [2].

For the compound `NCCS` [Cysteamine, cysteamine], the MIC is, setting by setting: under setting [1], 500 µg/mL (≈ 6.48 mM); under setting [2], 500 µg/mL (≈ 6.48 mM); (PAO1, text statement, medium not stated, consistently either 250 or 500 across experiments, read-out: MIC100 against PAO1) 250 µg/mL (≈ 3.24 mM). Further, the “MIC100 against PAO1” value (medium not stated, consistently either 250 or 500 across experiments) is 500 µg/mL (≈ 6.48 mM).
